# In PubChem BioAssay (NCI):
#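 Each compound was tested at five concentrations against cells in 96-well plates for 48 hours. TGI denotes the concentration required for complete inhibition of growth.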
# Columns and labels:
# Assay in all cases: NCI tumour cell line growth inhibition, 48 h
# [1] = system: MDA-MB-231 breast
# [2] = system: OVCAR-8 ovarian
# [3] = system: SR leukemia
# [4] = system: UACC-62 melanoma
# [5] = system: HOP-62 NSCLC
# [6] = system: OVCAR-5 ovarian
# [7] = system: SK-MEL-28 melanoma
# [8] = system: NCI-H226 lung
# [9] = system: KM12 colon
# [10] = system: TK-10 renal
# [11] = system: SK-OV-3 ovarian
# [12] = system: 786-0 renal
# [13] = system: HOP-92 NSCLC
# [14] = system: SNB-75 CNS
# [15] = system: MCF7 breast
# [16] = system: SF-295 CNS
# [17] = system: K-562 leukemia
# [18] = system: RPMI-8226 leukemia
# [19] = system: SF-268 CNS
# [20] = system: M14 melanoma
# [21] = system: CAKI-1 renal
# [22] = system: CCRF-CEM leukemia
# [23] = system: PC-3 prostate
# [24] = system: SF-539 CNS
# [25] = system: EKVX NSCLC
# [26] = system: BT-549 breast
# [27] = system: HL-60(TB) leukemia
# [28] = system: SNB-19 CNS
# [29] = system: NCI-H522 lung
# [30] = system: NCI/ADR-RES ovarian
# [31] = system: U251 CNS
# [32] = system: SK-MEL-5 melanoma
# [33] = system: DU-145 prostate
# [34] = system: OVCAR-3 ovarian
# [35] = system: HCC-2998 colon
# [36] = system: HCT-116 colon
# [37] = system: OVCAR-4 ovarian
# [38] = system: IGROV1 ovarian
# [39] = system: T-47D breast
# [40] = system: MOLT-4 leukemia
# [41] = system: UACC-257 melanoma
# [42] = system: MALME-3M melanoma
# [43] = system: RXF 393 renal
# [44] = system: UO-31 renal
# [45] = system: A549 NSCLC
# [46] = system: MDA-MB-435
# [47] = system: SK-MEL-2 melanoma
# [48] = system: MDA-N
# [49] = system: SW-620 colon
# [50] = system: HT29 colon
# [51] = system: SN12C renal
# [52] = system: NCI-H23 lung
# [53] = system: HS 578T breast
# [54] = system: NCI-H460 lung
# [55] = system: LOX IMVI melanoma
# [56] = system: ACHN renal
# [57] = system: HCT-15 colon
# [58] = system: COLO 205 colon
# [59] = system: A498 renal
compound,measurement,setting,value
COC1=CC(=O)c2nc3ccccc3c3ccnc1c23,TGI,[1],> 69 µM
same,TGI,[2],> 53.3 µM
same,TGI,[3],10.8 µM
same,TGI,[4],2.95 µM
same,TGI,[5],> 44.8 µM
same,TGI,[6],29.7 µM
same,TGI,[7],41.5 µM
same,TGI,[8],33 µM
same,TGI,[9],> 43.3 µM
same,TGI,[10],> 66.9 µM
same,TGI,[11],> 100 µM
same,TGI,[12],> 48.7 µM
same,TGI,[13],48 µM
same,TGI,[14],46.1 µM
same,TGI,[15],15.2 µM
same,TGI,[16],19.7 µM
same,TGI,[17],> 100 µM
same,TGI,[18],> 65.5 µM
same,TGI,[19],> 44.2 µM
same,TGI,[20],13.7 µM
same,TGI,[21],> 53.8 µM
same,TGI,[22],13.8 µM
same,TGI,[23],> 31.3 µM
same,TGI,[24],13.3 µM
same,TGI,[25],25.8 µM
same,TGI,[26],29.6 µM
same,TGI,[27],10.7 µM
same,TGI,[28],> 64.9 µM
same,TGI,[29],20.5 µM
same,TGI,[30],51.3 µM
same,TGI,[31],> 67.3 µM
same,TGI,[32],2.82 µM
same,TGI,[33],14.4 µM
same,TGI,[34],> 21.4 µM
same,TGI,[35],11.8 µM
same,TGI,[36],> 22.8 µM
same,TGI,[37],18.8 µM
same,TGI,[38],25.1 µM
same,TGI,[39],> 100 µM
same,TGI,[40],13 µM
same,TGI,[41],17 µM
same,TGI,[42],7 µM
same,TGI,[43],16.2 µM
same,TGI,[44],> 50.2 µM
same,TGI,[45],13.9 µM
same,TGI,[46],0.38 µM
same,TGI,[47],21.8 µM
same,TGI,[48],0.448 µM
same,TGI,[49],35.1 µM
same,TGI,[50],12.5 µM
same,TGI,[51],> 45.1 µM
same,TGI,[52],16 µM
same,TGI,[53],> 47 µM
same,TGI,[54],8.33 µM
same,TGI,[55],22.7 µM
same,TGI,[56],> 65.4 µM
same,TGI,[57],13.5 µM
same,TGI,[58],26.3 µM
CC[C@H]1CN(C)[C@H]2Cc3c([nH]c4ccccc34)C(=O)C[C@H]1C2C(=O)OC (some centres undefined),TGI,[1],> 100 µM
same,TGI,[2],> 100 µM
same,TGI,[3],> 100 µM
same,TGI,[4],> 100 µM
same,TGI,[5],> 100 µM
same,TGI,[6],> 100 µM
same,TGI,[7],> 100 µM
same,TGI,[8],> 100 µM
same,TGI,[9],> 100 µM
same,TGI,[10],> 100 µM
same,TGI,[11],> 100 µM
same,TGI,[12],> 100 µM
same,TGI,[13],> 100 µM
same,TGI,[15],> 100 µM
same,TGI,[16],> 100 µM
same,TGI,[18],> 100 µM
same,TGI,[19],> 100 µM
same,TGI,[20],> 100 µM
same,TGI,[22],> 100 µM
same,TGI,[23],> 100 µM
same,TGI,[24],> 100 µM
same,TGI,[25],> 100 µM
same,TGI,[26],> 100 µM
same,TGI,[27],> 100 µM
same,TGI,[28],> 100 µM
same,TGI,[29],> 100 µM
same,TGI,[30],> 100 µM
same,TGI,[31],> 100 µM
same,TGI,[32],> 100 µM
same,TGI,[33],> 100 µM
same,TGI,[34],> 100 µM
same,TGI,[35],> 100 µM
same,TGI,[36],> 100 µM
same,TGI,[37],> 100 µM
same,TGI,[38],> 100 µM
same,TGI,[39],> 100 µM
same,TGI,[40],> 100 µM
same,TGI,[41],> 100 µM
same,TGI,[42],> 100 µM
same,TGI,[43],> 100 µM
same,TGI,[44],> 100 µM
same,TGI,[45],> 100 µM
same,TGI,[46],> 100 µM
same,TGI,[47],> 100 µM
same,TGI,[48],> 100 µM
same,TGI,[49],> 100 µM
same,TGI,[50],> 100 µM
same,TGI,[51],> 100 µM
same,TGI,[52],> 100 µM
same,TGI,[53],> 100 µM
same,TGI,[54],> 100 µM
same,TGI,[55],> 100 µM
same,TGI,[56],> 100 µM
same,TGI,[59],> 100 µM
same,TGI,[57],> 100 µM
same,TGI,[58],> 100 µM
